Results taken from patent publication US11413337B2, “Peptide conjugated particles for the treatment of inflammation” (Northwestern University, priority 2012, dated 2022).
Where no end group is shown, it is not given here.

Assays:
[1] = tested on: Relapsing Experimental Autoimmune Encephalitis; assay: treatment of active R-EAE at day 10, route of administration; format: in vivo, mouse
Protocol: Experiments were conducted during development of embodiments of the present invention to investigate the ability of the PLG-PLP139-151 particles to treat disease rather than prevent disease, and to determine whether the route of administration affected the development of disease. Mice were immunized at day 0 with PLP139-151 and an adjuvant. Mice normally have maximal clinical scores at day 12-14. In this model, the mice were treated at day 10 with the PLG-PLP139-151 particles or with control PLG-OVA323-339 particles either via intravenous (iv) administration, intraperitoneal (ip) administration, subcutaneous (sc) administration, or orally. […] This is in contrast to animals treated with PLP139-151 polystyrene particles, whereby >70% of animals where observed to die from anaphylaxis.

[2] = tested on: allergic airway inflammation; assay: prophylactic allergic airway inflammation, OVA/Alum; format: in vivo, mouse
Protocol: To test the prophylactic effect of OVA encapsulated in PLG particles on airway inflammation, mice were treated intravenously with OVA-PLG at day −7. On day 0, the mice received intraperitoneal injections of OVA/Alum at a dose of 10 μg/mouse. On day 7, the mice were again treated intravenously with OVA-PLG and received another 10 μg/mouse ip injection of OVA/Alum on day 14. Between days 28 and 30, the mice were treated three times with aerosolized OVA.

[3] = tested on: allergic airway inflammation; assay: therapeutic allergic airway inflammation, OVA/Alum; format: in vivo, mouse
Protocol: To test the therapeutic effect of OVA encapsulated in PLG particles on airway inflammation, mice were treated intraperitoneally with OVA/Alum at a dose of 10 μg/mouse on day 0 and day 14. The mice were intravenously administered with OVA-PLG on days 28, and 42. Between days 56-58, the mice were treated three times with aerosolized OVA.
The animals were treated as described above except that on days 28 and 42, the mice were treated with either OVA encapsulated in PLG particles, or OVA coupled to PLG particles.

CD45.1 donor cells = assay: engraftment of male CD45.1 bone marrow cells in female CD45.2 mice; format: in vivo, mouse
From the text: Female CD45.2 mice were tolerized with either OVA-PLG or the control peptide Dby-PLG (the major H-Y antigen expressed by Male C57BL/6 mice) on day −7. On day −1, the mice were irradiated with 200 rads and were then transplanted with 1×10^6, 5×10^6, or 1×10^7 bone marrow cells from male CD45.1 mice on day 0. The recipient mice were then tolerized with either OVA-PLG, Dby-SP, or Dby-PLG on day 1 and the blood harvested for FACS analysis of chimerism.

mediastinal lymph nodes = assay: OVA-specific in vitro recall responses from mediastinal lymph nodes; format: cell-based, mouse
From the text: Moreover treatment with OVA-PLG decreases the release of cytokines after restimulation with OVA.

[4] = tested on: Relapsing Experimental Autoimmune Encephalitis (R-EAE); assay: prophylactic tolerance in PLP139-151/CFA-induced R-EAE, particles given day −7; format: in vivo, mouse; details: for clinical score: treated day −7
SJL/J mice with EAE = assay: iv injection during EAE remission (day 21), anaphylaxis; format: in vivo, mouse; details: administration during remission, d21
Protocol: EAE was induced in six to eight week old female SJL/J mice by subcutaneous injection of PLP139-151 in CFA, and development of clinical disease was monitored and recorded (FIG. 5B). On d21 relative to disease induction, mice were given iv injections of soluble PLP139-151 (clear squares), soluble OVA323-339 (clear circles), or the same peptides coupled to PLG nanoparticles (solids). Temperature of animals was monitored and recorded every 10 minutes for 1 hour following injection (FIG. 5A).

cervical spinal cord = assay: spinal cord histology and in vivo imaging in R-EAE; set-up: species or system mouse
Protocol: An additional therapeutic tolerance strategy was performed by delivering PLP139-151-PLG or OVA323-339 PLG to mice. […] Mice were treated with PLP-PLG or OVA323-339-PLG and the tissue was retrieved at day 40. The cervical spinal cord was isolated and sectioned to investigate the immune response within the CNS, which underlies the pathology of R-EAE and multiple sclerosis.
The clinical scores and percent incidence of EAE were determined (FIG. 10B) and the spinal cords observed via in vivo imaging (FIGS. 10A and 11). […] The bar graphs give the numerical numbers to the signal strength shown in the brain and SC scans.

adoptive EAE = assay: adoptive transfer EAE treated with antigen-coupled PLG particles; format: in vivo, mouse; details: for mean clinical score: treated at day 2
Protocol: Experiments were conducted during development of embodiments of the present invention to investigate a second model of active disease termed adoptive transfer. Rather than immunizing the animals with the peptide, the lymphocytes from the spleen of mice with active disease were transferred to a recipient, who would subsequently develop disease. Experiments were conducted during development of embodiments of the present invention to characterize the ability of the PLG nanoparticles to deactivate the adoptively transferred activated effector cells.
Therapeutic tolerance induced by PLP139-151-PLG particles was compared in active and adoptive EAE. Adoptive EAE was induced in six to eight-week old female SJL/J mice by adoptive transfer of 2.5×10^6 PLP139-151-activated blasts. Mice were injected iv with PLP139-151 (squares) or OVA323-339 (circles) peptide coupled to 500 nm PLG nanoparticles 2 days (FIG. 14A) or 14 days (FIG. 14C) following disease induction. Clinical disease scores were compared to those following treatment with antigen-coupled splenocytes (FIG. 14A). Brain and spinal cord were collected from PLP139-151- or OVA323-339-tolerized mice for histological analysis on day 42. Sections from mice from panel A were stained for PLP protein and CD45 (FIG. 14B). Spinal cord sections from mice from panel C were stained with Luxol Fast Blue (FIG. 14D). Areas of demyelination and cellular infiltration are indicated by arrows.
SJL/J mice were injected i.v. with 500 nm PLG nanoparticles coupled with PLP139-151 (squares) or OVA323-339 (circles) 2 days following EAE induction by adoptive transfer. At the peak of disease (day 14) brains and spinal cords were removed and the number of lymphocytes (FIG. 16B), APCs (FIG. 16C), microglia (FIG. 16D), peripheral dendritic cells (FIG. 16E), myeloid dendritic cells (FIG. 16F) and macrophages (FIG. 16G) were enumerated by flow cytometry. The gating strategy for these populations is depicted in (FIG. 16A). CNS cell preparations were stimulated with PMA and ionomycin for 5 h prior to intracellular staining for IL-17A and IFN-γ (FIG. 16H).

[5] = tested on: OVA/Alum pre-sensitized mice; assay: anaphylaxis-induced temperature drop in OVA/Alum pre-sensitized animals; format: in vivo, mouse; details: iv on day 28; within 1 hour of delivering
Protocol: Due to the presence of active disease, anaphylaxis to the antigens is a concern, which could result in immediate mortality, and has been described with polystyrene bound particles. Anaphylaxis is associated with a significant drop in body temperature. To test whether intravenous administration of OVA-PLG induces an anaphylaxis-induced temperature drop in pre-sensitized animals, mice were immunized at day 0 with 10 μg OVA/Alum via intraperitoneal injection. On day 14, the mice were again immunized with 10 μg OVA/Alum via intraperitoneal injection, and then tolerized with OVA-PLG administered intravenously on day 21. On day 28, the mice were then tolerized with either OVA-PLG particles or OVA via intravenous administration.

PLP139-151 polystyrene particles: PLP139-151 bound to polystyrene particles (CHCLGKWLGHPDK; cysteine pairing not given here; also: bound to polystyrene particles; UniProt P60202 139-151, looked up, fragment) [reference compound]
animals observed to die from anaphylaxis ([1]; mouse, in vivo): > 70%

OVA-PLG: OVA with PLG particles: coupled in Example 3, encapsulated in Examples 12 and 13, OVA323 peptide control in Example 16
eosinophils in the lung [2]: reduced
levels of serum OVA IgE [2]: reduced
secretion of IL-4, IL-5, IL-13 and IL-10 ([2]; iv day −7 and day 7): decreased
eosinophils in the lung [3]: reduced
levels of serum OVA IgE [3]: reduced
secretion of IL-4, IL-5, IL-13 and IL-10 ([3]; iv days 28 and 42): decreased
engraftment, one mouse (CD45.1 donor cells; Day −7, Day +1 group, FIG. 28): 12%
engraftment (percent of donor CD45.1 cells), individual mice (CD45.1 donor cells; tolerized day 1, FIG. 27): ~10%
lymph node proliferation (mediastinal lymph nodes; after restimulation with 25 μg OVA): decreased
levels of IL-4, IL-5, IL-13, and IL-10 (mediastinal lymph nodes; after restimulation with OVA): decreased

PLP139-151-PLG: immunodominant proteolipid protein PLP139-151 epitope coupled to 500 nm PLG nanoparticles (CHCLGKWLGHPDK; cysteine pairing not given here; also: coupled to 500 nm PLG nanoparticles; UniProt P60202 139-151, looked up, fragment)
down-regulating induction of R-EAE, by type of particle ([4]; day −7, FIGS. 3A and 3B): more effective in down-regulating induction of R-EAE
delayed-type hypersensitivity (DTH) responses ([4]; to immunizing PLP139-151 epitope): lack of delayed-type hypersensitivity (DTH) responses
clinical score ([4]; all time points except days 20 to 30): 0
clinical score ([4]; between days 20 and 30): under 1
prevention of disease induction ([4]; treated day −7 relative to immunization): specifically prevented EAE development
anaphylaxis-associated mortality (SJL/J mice with EAE): does not result in any anaphylaxis-associated mortality
immune cell infiltration within the spinal cord (cervical spinal cord; day 40): reduction in immune cell infiltration
cervical spinal cord inflammation and demyelination (cervical spinal cord; histological analysis, tissue retrieved at day 40): inhibits cervical spinal cord inflammation and demyelination
blood brain barrier (BBB) disruption and macrophage activation in the spinal cord (cervical spinal cord; in vivo imaging, Angiosense and prosense): inhibits blood brain barrier (BBB) disruption and macrophage activation
staining for CD45, CD4, and CD11b (cervical spinal cord; spinal cord, day 40): minimal staining
disease (mean clinical score) (adoptive EAE; adoptive EAE, iv 2 days following disease induction (FIG. 15B)): reduced disease
tolerance induction in adoptive EAE (adoptive EAE; iv 2 or 14 days following disease induction): tolerance is induced
infiltration of central nervous system immune cells (adoptive EAE; iv day 2, peak of disease (day 14), flow cytometry): drastically reduced
mean clinical score (adoptive EAE; all but two time points through day 40): 0
mean clinical score (adoptive EAE; the other two time points): 0.25
disease (mean clinical score) ([1]; active EAE, iv 10 days following disease induction (FIG. 15A)): reduced disease
development of disease ([1]; administered intravenously): did not develop disease
mean clinical scores ([1]; administered intravenously, at most time points): 0
efficiency of tolerance by route of administration ([1]; iv, ip, sc or oral, FIG. 7): most efficient when the PLG-PLP139-151 particles are administered either intravenously or intraperitoneally

B1: OVA-PLG: OVA with PLG particles: coupled in Example 3, encapsulated in Examples 12 and 13, OVA323 peptide control in Example 16 (conjugate, UniProt P01012 2-386, looked up)
Ovalbumin: GSIGAASMEFCFDVFKELKVHHANENIFYCPIAIMSALAMVYLGAKDSTRTQINKVVRFDKLPGFGDSIEAQCGTSVNVHSSLRDILNQITKPNDVYSFSLASRLYAEERYPILPEYLQCVKELYRGGLEPINFQTAADQARELINSWVESQTNGIIRNVLQPSSVDSQTAMVLVNAIVFKGLWEKAFKDEDTQAMPFRVTEQESKPVQMMYQIGLFRVASMASEKMKILELPFASGTMSMLVLLPDEVSGLEQLESIINFEKLTEWTSSNVMEERKIKVYLPRMKMEEKYNLTSVLMAMGITDVFSSSANLSGISSAESLKISQAVHAAHAEINEAGREVVGSAEAGVDAASVSEEFRADHPFLFCIKHIATNAVLFFGRCVSP
modifications: coupled to or encapsulated in PLG particles
body temperature [5]: No decrease in body temperature

B2: soluble OVA: soluble ovalbumin given intravenously (protein, UniProt P01012 2-386, looked up)
Ovalbumin: GSIGAASMEFCFDVFKELKVHHANENIFYCPIAIMSALAMVYLGAKDSTRTQINKVVRFDKLPGFGDSIEAQCGTSVNVHSSLRDILNQITKPNDVYSFSLASRLYAEERYPILPEYLQCVKELYRGGLEPINFQTAADQARELINSWVESQTNGIIRNVLQPSSVDSQTAMVLVNAIVFKGLWEKAFKDEDTQAMPFRVTEQESKPVQMMYQIGLFRVASMASEKMKILELPFASGTMSMLVLLPDEVSGLEQLESIINFEKLTEWTSSNVMEERKIKVYLPRMKMEEKYNLTSVLMAMGITDVFSSSANLSGISSAESLKISQAVHAAHAEINEAGREVVGSAEAGVDAASVSEEFRADHPFLFCIKHIATNAVLFFGRCVSP
body temperature [5]: decrease in temperature
